Here are results for 71 compounds from PubChem BioAssay AID449762 (Southern Research Specialized Biocontainment Screening …, 2010).

This assay relates to M. tuberculosis H37Rv growth inhibition, 7H9 media. Nature of the assay: M. tuberculosis growth inhibition, HTS (AID 449762).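 As to all read-outs here: bacterial growth assessed after seven days of incubation.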 To be noted: for IC90: measured here: IC90 growth inhibition.

Structures are written as SMILES. Results filed as inconclusive are left out.

Take `COc1cccc(-c2cnc(NCc3cc(Cl)ccc3O)n2C)c1`: the IC50 – broadly, the midpoint of a concentration-inhibition curve – was 19.1 µM and the IC90 – broadly, the point of the concentration-response curve where the effect stands at 90% – was 22.9 µM. As to `O=C1C2C(c3ccccc3)(C(=O)N1c1ccc(Cl)cc1)C2(c1ccccc1)c1ccccc1` (stereo not given), the IC50 was 11.5 µM and the IC90 stood at 12.4 µM. The corresponding values for `O=C(C1=C[C@@H](c2csc3ccccc23)C[C@@H](OCCCCO)O1)N1CCN(Cc2ccc3c(c2)OCO3)CC1` are 28.5 µM and 47.8 µM.

In the case of `Cc1cccc(N(C(=O)c2nsc(Cl)c2Cl)C(C(=O)NC2CCCC2)c2ccc(O)cc2)c1C` (stereo not given), the IC50 was 21.7 µM and the IC90 is 28.2 µM. In the same order, the values of `Cc1sc2nc(CN(C(=O)NC3CCCCC3)C3CCCC3)[nH]c(=O)c2c1C` are 30.5 µM and more than 100 µM. As for `CCOc1ccccc1NC(=O)C12CC3CC(C1)CC(c1ccc(C)cc1)(C3)C2`, the half-maximal inhibitory concentration (IC50) is 30.1 µM and the IC90 is more than 100 µM. For the compound `O=C(CSc1ccc(Cl)cc1)N1CCC(c2nc3ccccc3s2)CC1`, the half-inhibitory concentration (IC50) was 85.9 µM and the IC90 is 92.9 µM.

Take `CSc1cccc(NC(=O)CCS(=O)(=O)c2cccc3nonc23)c1`: the IC50 was 1.72 µM and the IC90 came out at 7.46 µM.

Take `Cc1cccc(-c2oc3ccc(-c4ccc5c(c4)OCO5)cc3c2C#Cc2cncn2C)c1`: the IC50 is 2.9 µM and the IC90 amounted to 3.36 µM. On to `O=C1C(Cl)=C(N2CCOCC2)C(=O)N1c1cccc(Cl)c1`, for which the IC50 was 3.48 µM and the IC90 is 7.3 µM. Turning to `O=C(c1ccccc1)c1nn(-c2ccc(Cl)cc2)c(=O)cc1C(F)(F)F`, the 50% inhibitory concentration (IC50) is 12 µM and the IC90 was 19.6 µM. The corresponding values for `Nc1n[nH]c(C2CC2)c1N=Nc1ccc(Cl)cc1` are 19.3 µM and 41 µM.

With `Cc1cncn1CCc1nc2c3ccccc3nc(SCC(=O)Nc3cccc(Cl)c3)n2n1`, the concentration for half-maximal inhibition (IC50) was 20.9 µM and the IC90 came to 27.9 µM.

As for `CCCC(/C=C/c1ccc(OC(C)=O)cc1)=C1/c2ccccc2C(=O)N1c1ccccc1`, the IC50 was 8.07 µM and the IC90 came out at 16.1 µM. In the same order, the values of `Cc1c2c(nc3ccccc13)CCC(C)C2` (stereo not given) are 33.8 µM and 61.8 µM.

In the case of `COc1ccc(COC(=O)CCNC(=O)c2ccc(Cl)cc2)cc1`, the IC50 is 58.7 µM and the concentration for an effect of 90% (IC90) is more than 100 µM. Regarding `C/C(=N\Nc1ccc(Cl)c(Cl)c1)c1ccc(-n2ccnc2)cc1`, the IC50 is 65.8 µM and the IC90 turned out to be 86.4 µM.

`O=C(N/N=C/c1ccc(Br)s1)c1cccs1`: the IC50 was 24.3 µM and the 90% effect concentration (IC90) is more than 100 µM. In the same order, the values of `C=CCOc1ccccc1CN(C(=O)CCl)c1ccc2c(c1)OCO2` are 0.92 µM and 2.58 µM. On to `CCc1ccc(/C=C2/C(=O)N(C)C(=S)N2CC(=O)OC)s1`, for which the IC50 is 1.46 µM and the IC90 came to 5.75 µM. On to `COC(=O)C(C)Oc1cc(C)ccc1COc1ccc(-n2nc(C)n(C(F)F)c2=O)cc1` (stereo not given), for which the IC50 is 16.6 µM and the IC90 was 32.9 µM.

For `COC(=O)C(C)Oc1ccc(Cc2ncc(C(F)(F)F)cc2Cl)cc1` (stereo not given), the IC50 was 2.43 µM and the IC90 came to 5.77 µM. Consider `CN(C)c1ccc(CNc2nc(-c3ccccc3)nn2S(C)(=O)=O)cc1`, for which the IC50 is 12 µM and the IC90 came out at 13.8 µM.

With `CON(C)c1nc(C2CCCCC2)c2cc(C)ccc2n1`, the IC50 is 60.1 µM and the IC90 was 75.5 µM. On to `O=C(CCN1C(=O)/C(=C/c2ccccc2)SC1=S)Nc1ccccn1`, for which the IC50 was 89.9 µM and the IC90 was more than 100 µM. In the same order, the values of `CC(C(c1ccc2c(c1)OCO2)c1c(N)n(C)c(=O)n(C)c1=O)[N+](=O)[O-]` (stereo not given) are 2.54 µM and 6.08 µM.

`CCCc1cc(-c2nc(N)ncc2-c2ccc3c(c2)OCCCO3)c(O)cc1OC`: the IC50 was 48.6 µM and the IC90 was determined as 54.9 µM. Take `COc1ccc(C(CCN2CCCCC2)c2c(OC)cc(OC)c3c(-c4ccccc4)cc(=O)oc23)cc1` (stereo not given): the IC50 was 15.1 µM and the IC90 is 22.4 µM. The corresponding values for `c1ccc(CN2CCN(CCCNc3ccc4nnc(-c5ccccc5)n4n3)CC2)cc1` are 19.4 µM and 24.7 µM. Consider `O=c1c2cc(-c3ccccc3)sc2ncn1/N=C/c1ccco1`, for which the IC50 is 82.7 µM and the IC90 is more than 100 µM.

On to `CCn1c2ccccc2c2cc(CN3CCN(Cc4cc(OC)ccc4O)CC3)ccc21`, for which the IC50 was 16.8 µM and the IC90 stood at 23.5 µM.

Consider `Cc1ccc(C2=NCCn3c2c2ccccc2[n+]3[O-])cc1`, for which the IC50 was 22.6 µM and the 90% effect concentration (IC90) came to 38.9 µM. Turning to `Cc1ccc2nc(-c3cccc(Br)c3)cc(C(=O)NC3=NCCS3)c2c1`, the IC50 is 14 µM and the IC90 was 28.9 µM. As to `Cn1ccnc1C(O)c1cc(C(C)(C)C)c(O)c(C(C)(C)C)c1` (stereo not given), the IC90 is more than 100 µM. For `CC(C)(C)c1ccc(C(=O)N2CCN(CCNC(=O)C(=O)NCc3ccc(Cl)cc3)CC2)cc1`, the IC50 is 22.7 µM and the IC90 was found to be 28.3 µM. The corresponding values for `S=C(Nc1ccc(Cl)cc1)NC1CC2CCC(C1)N2Cc1ccccc1` (stereo not given) are 10.9 µM and 14.8 µM. The corresponding values for `O=C1CC(/C=C/c2ccc(Cl)cc2)=Nc2ccccc2N1` are 12.1 µM and 14.1 µM. In the same order, the values of `COc1ccccc1N(O)C1CC(=O)N(c2ccc(Br)cc2)C1=O` (stereo not given) are 16.8 µM and 32.3 µM. In the case of `CC(Oc1ccc2ccccc2c1)C(=O)NNC(=S)NC(=O)c1ccco1` (stereo not given), the half-maximal inhibitory concentration (IC50) was 6.06 µM and the IC90 was found to be 45 µM. The corresponding values for `CCOC(=O)c1ccc(-c2c(-c3ccc4c(c3)OCO4)noc2C)cc1F` are 33.3 µM and 54 µM.

In the case of `Cc1cc(C)n(-c2cc(C(C)(C)C)nc3c(-c4ccccc4)cnn23)n1`, the IC50 was 27.3 µM and the IC90 stood at 34.7 µM. The corresponding values for `COc1ccc2c(c1)CCc1c(C(=O)Nc3c(C)n(C)n(-c4ccccc4)c3=O)noc1-2` are 14.2 µM and more than 100 µM. The corresponding values for `COc1ccc(NC(=O)CSC2CCCCC2)cc1` are 35.2 µM and more than 100 µM. Regarding `N#CCn1c(CCl)nc2ccccc2c1=O`, the IC50 was 5.21 µM and the concentration for an effect of 90% (IC90) stood at 17.4 µM. Turning to `CCOC(=O)c1cc(-c2csc(Nc3c(C)cc(C)cc3C)n2)on1`, the IC50 is 1.07 µM and the IC90 turned out to be 1.76 µM. In the case of `O=C(CSc1cccc[n+]1[O-])c1cccs1`, the IC50 is 12 µM and the IC90 worked out at 16.5 µM. The corresponding values for `COc1ccc(-c2ccc(OC)c([C@H]3[C@@H]4C=CCC[C@@]4(C)C(=O)N3Cc3ccccc3)c2)cc1OC` are 13.1 µM and 24.8 µM. The corresponding values for `N#Cc1nc(-c2ccc(OCc3ccccc3)cc2)oc1NCCCn1ccnc1` are 26.7 µM and 35.5 µM. The corresponding values for `CNC[C@H](Cc1cccc2ccccc12)NC[C@H](CCSC)NCC1CCC(C(C)(C)C)CC1` (stereo not given in full) are 22.4 µM and 24.2 µM.

Take `O=c1c(C=Nc2ccc(Oc3ccccc3)cc2)c[nH]n1-c1cccc(Cl)n1`: the concentration for half-maximal inhibition (IC50) is 10.6 µM and the concentration for an effect of 90% (IC90) was more than 100 µM. `CC(C)c1ccc2[nH]c(O)c(N=NC(=O)c3ccc(CSc4nncn4C)cc3)c2c1` yielded an IC90 of more than 100 µM. Consider `CCc1cc2c(=O)n(C(C)C(=O)OC3CCCCC3)cnc2s1` (stereo not given), for which the IC50 is 17.8 µM and the IC90 turned out to be 27.8 µM. In the same order, the values of `O=C(CN1CCN(Cc2ccc(Cl)cc2)CC1)N/N=C/C=C/c1ccccc1[N+](=O)[O-]` are 26.8 µM and 37.6 µM. The corresponding values for `CCN(CC)c1ccc(/C=C2\SC(=O)N(C(C)C)C2=O)o1` are 1.34 µM and 4.79 µM. The corresponding values for `CC(CC(=O)Nc1ccc(Cl)c([N+](=O)[O-])c1)c1ccccc1` (stereo not given) are 16 µM and 40.7 µM. On to `COc1cccc(Nc2ccc([N+](=O)[O-])c3nonc23)c1`, for which the IC50 was 9.43 µM and the IC90 is 13.6 µM. Turning to `CN1CCc2cc3c(c4c2C1Cc1ccccc1-4)OCO3` (stereo not given), the IC50 was 1.66 µM and the IC90 is 1.94 µM. Turning to `NNc1nc2ccc(Cl)cc2s1`, the IC50 was 42.5 µM and the IC90 is 46.6 µM. For `CC1(c2nnc(-c3ccncc3)o2)CC(c2ccccc2)=NO1` (stereo not given), the IC50 was 63.3 µM and the IC90 is more than 100 µM. In the same order, the values of `N#CC(C(=O)Nc1ccccc1)=C1Nc2ccccc2N1` are 34.9 µM and more than 100 µM.

With `O=c1[nH]c(CN2CC=C(c3ccccc3)CC2)nc2cc(C(F)(F)F)ccc12`, the IC50 was 69.4 µM and the IC90 came out at 86 µM.

In the case of `CN(C)c1ccnc2c[cH-]cc12.[Fe].c1ccc(-[c-]2[c-](-c3ccccc3)[c-](-c3ccccc3)[c-](-c3ccccc3)[c-]2-c2ccccc2)cc1` (stereo not given), the IC50 is 13.7 µM and the IC90 came to 17.4 µM. The corresponding values for `O=C(CCN1C(=O)/C(=C/c2ccccc2Cl)SC1=S)N1CCCC1` are 9.76 µM and more than 25 µM. In the same order, the values of `CN1CCN(Cc2nc3ccccc3c(=O)n2Cc2nc(-c3ccc4ccccc4c3)cs2)CC1` are 22.3 µM and 25.7 µM. The corresponding values for `CCOC(=O)Oc1c(OC)cc(C(=O)O[C@@H]2C[C@@H]3CN4CCc5c([nH]c6cc(OC)ccc56)[C@H]4C[C@@H]3[C@H](C(=O)OC)[C@H]2OC)cc1OC` are 19.7 µM and 27.3 µM.

Regarding `CC1=NN(c2ccccc2)C(=O)C1C(=O)c1ccccc1` (stereo not given), the IC50 was 25.7 µM and the IC90 came out at 53 µM. For `CNC(=S)/N=C/NOCc1c(Cl)cccc1Cl`, the concentration for half-maximal inhibition (IC50) was 5.44 µM and the IC90 came to 12.9 µM. The corresponding values for `O=C(NN=C1c2ccccc2-c2ccccc21)c1cccc(Br)c1` are 0.28 µM and more than 100 µM. On to `O=C(CCl)NN=C(c1ccccc1)c1ccccc1`, for which the 50% inhibitory concentration (IC50) is 0.52 µM and the IC90 amounted to 1.89 µM. As to `CC(Oc1cc2oc(=O)c3c(c2cc1Cl)CCCC3)C(=O)NCc1ccccn1` (stereo not given), the concentration for half-maximal inhibition (IC50) was 7.47 µM and the IC90 is more than 100 µM. In the same order, the values of `CC(=O)Nc1ccc(N2C(C(C)=O)=NN(c3ccc(Cl)cc3)C2c2sccc2C)cc1` (stereo not given) are 83.9 µM and 93.1 µM.
